From patent publication US10065972B2, “Bicyclic or tricyclic heterocyclic compound” (MITSUBISHI TANABE PHARMA CORPORATION, priority 2014, dated 2018)

Molecular target: human recombinant KAT-II (Homo sapiens (Human), UniProt Q8N5Z0)
Assay: KAT-II inhibitory test
Type: biochemical
Conditions: 3.0 μmol/L kynurenine, 37° C., 1 hr, pH 8.0; kynurenic acid quantified by HPLC
Procedure, shortened: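 E. coli-expressed His/MBP-tagged human KAT-II (2.0 ng/μL) incubated with 3.0 μmol/L kynurenine and 10 μmol/L pyridoxal phosphate in Tris-acetate pH 8.0, 1 hr at 37 °C. Reaction stopped with TCA. Kynurenic acid quantified by reversed-phase HPLC with fluorescence detection (ex 354/em 460 nm), duplicate at each concentration.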

Sequence of human recombinant KAT-II (Q8N5Z0 30-425): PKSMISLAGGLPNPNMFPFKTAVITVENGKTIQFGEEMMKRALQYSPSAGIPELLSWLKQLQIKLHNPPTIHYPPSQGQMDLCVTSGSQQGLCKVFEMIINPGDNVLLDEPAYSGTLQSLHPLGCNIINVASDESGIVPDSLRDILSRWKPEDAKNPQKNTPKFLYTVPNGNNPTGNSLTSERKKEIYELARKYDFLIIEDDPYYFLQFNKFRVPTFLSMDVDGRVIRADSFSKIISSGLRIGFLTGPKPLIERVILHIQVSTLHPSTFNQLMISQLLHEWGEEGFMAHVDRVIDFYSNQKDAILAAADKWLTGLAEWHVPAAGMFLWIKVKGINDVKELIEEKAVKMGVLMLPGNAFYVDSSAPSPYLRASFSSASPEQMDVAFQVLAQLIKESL

| IC50 [µM] | Structure (SMILES) |
| --- | --- |
| 0.041 | Cc1ccc(-c2nc3sc(N4CCC[C@@H]4C(=O)NCc4ccccc4)nc3c(=O)[nH]2)s1 [Example 500, (R)-N-benzyl-1-[5-(5-methylthiophen-2-yl)-7-oxo-6,7-dihydro[1,3]thiazolo[5,4-d]pyrimidin-2-yl]pyrrolidine-2-carboxamide] |
| 0.017 | Cc1cc(F)c(-c2nc3sc(N4CCC[C@@H]4C(=O)NCc4ccccc4)nc3c(=O)[nH]2)s1 [Example 501, (R)-N-benzyl-1-[5-(3-fluoro-5-methylthiophen-2-yl)-7-oxo-6,7-dihydro[1,3]thiazolo[5,4-d]pyrimidin-2-yl]pyrrolidine-2-carboxamide] |
| 0.004 | O=C(NCc1ccccc1)[C@H]1CCCN1c1nc2c(=O)[nH]c(C(F)(F)c3ccccc3)nc2s1 [Example 524, (R)-N-benzyl-1-{5-[difluoro(phenyl)methyl]-7-oxo-6,7-dihydro[1,3]thiazolo[5,4-d]pyrimidin-2-yl}pyrrolidine-2-carboxamide] |
| 0.019 | O=C(NCc1ccccc1)[C@H]1CCCN1c1nc2c(=O)[nH]c(C(F)(F)CCS(=O)(=O)c3ccccc3)nc2s1 [Example 530, (R)-N-benzyl-1-[5-(3-benzenesulfonyl-1,1-difluoropropyl)-7-oxo-6,7-dihydro-[1,3]thiazolo[5,4-d]pyrimidin-2-yl]pyrrolidine-2-carboxamide] |
| 0.017 | C[C@H](C(=O)NCc1ccccc1)N(C)c1nc2c(=O)[nH]c(-c3ccccc3F)nc2s1 [Example 532, (R)-N-benzyl-2-{N′-[5-(2-fluorophenyl)-7-oxo-6,7-dihydro[1,3]thiazolo[5,4-d]pyrimidin-2-yl]-N′-methylamino}propionamide] |
| 0.0069 | O=C(NCc1ccccc1)[C@H]1CCCN1c1nc2c(=O)[nH]c(C(F)(F)F)nc2s1 [Example 536, (R)-N-benzyl-1-(7-oxo-5-trifluoromethyl-6,7-dihydro[1,3]thiazolo[5,4-d]pyrimidin-2-yl)pyrrolidine-2-carboxamide] |
| 0.022 | O=C(NCc1ccccc1)[C@H]1CCCN1c1nc2c(=O)[nH]c(C(F)F)nc2s1 [Example 539, (R)-N-benzyl-1-(5-difluoromethyl-7-oxo-6,7-dihydro[1,3]thiazolo[5,4-d]pyrimidin-2-yl)pyrrolidine-2-carboxamide] |
| 0.043 | O=C(NCc1ccccc1)[C@H]1CCCN1c1nc2c(=O)[nH]c(N3CCC[C@H]3C(F)(F)F)nc2s1 [Example 553, (R)-N-benzyl-1-{7-oxo-5-[(S)-2-(trifluoromethyl)pyrrolidin-1-yl]-6,7-dihydro[1,3]thiazolo[5,4-d]pyrimidin-2-yl}pyrrolidine-2-carboxamide] |
| 1.1 | O=C(NCc1ccccc1)[C@H]1CCCN1c1nc2c(=O)[nH]c(OCC(F)(F)F)nc2s1 [Example 555, (R)-N-benzyl-1-[7-oxo-5-(2,2,2-trifluoroethoxy)-6,7-dihydro[1,3]thiazolo[5,4-d]pyrimidin-2-yl]pyrrolidine-2-carboxamide] |
| 0.01 | COCc1nc2sc(N3CCC[C@@H]3C(=O)NCc3ccccc3)nc2c(=O)n1C1CCOCC1 [Example 565, (R)-N-benzyl-1-[5-methoxymethyl-7-oxo-6-(tetrahydro-2H-pyran-4-yl)-6,7-dihydro[1,3]thiazolo[5,4-d]pyrimidin-2-yl]pyrrolidine-2-carboxamide] |
| 0.086 | Cn1c(C2CC2)nc2sc(N3CC(F)(F)C[C@@H]3C(=O)NCc3ccccc3)nc2c1=O [Example 572, (R)-N-benzyl-1-(5-cyclopropyl-6-methyl-7-oxo-6,7-dihydro[1,3]thiazolo[5,4-d]pyrimidin-2-yl)-4,4-difluoropyrrolidine-2-carboxamide] |
| 0.035 | Cn1c(C2(C#N)CC2)nc2sc(N3CCC[C@@H]3C(=O)NCc3ccccc3)nc2c1=O [Example 573, (R)-N-benzyl-1-[5-(1-cyanocyclopropyl)-6-methyl-7-oxo-6,7-dihydro[1,3]thiazolo[5,4-d]pyrimidin-2-yl]pyrrolidine-2-carboxamide] |
| 0.019 | CCc1nc2sc(N3CCC[C@@H]3C(=O)COc3ccccc3)nc2c(=O)n1C [Example 575, 5-ethyl-6-methyl-2-[(R)-2-(2-phenoxyacetyl)pyrrolidin-1-yl][1,3]thiazolo[5,4-d]pyrimidin-7(6H)-one] |
| 0.028 | COC1CN(c2nc3sc(N4CCC[C@@H]4C(=O)COc4ccccc4)nc3c(=O)n2C)C1 [Example 578, 5-(3-methoxyazetidin-1-yl)-6-methyl-2-[(R)-2-(2-phenoxyacetyl)pyrrolidin-1-yl][1,3]thiazolo[5,4-d]pyrimidin-7(6H)-one] |
| 0.01 | CCc1nc2sc(N3CCC[C@@H]3C(=O)CNc3ccccc3)nc2c(=O)n1C [Example 579, 5-ethyl-6-methyl-2-[(R)-2-(2-phenylaminoacetyl)pyrrolidin-1-yl][1,3]thiazolo[5,4-d]pyrimidin-7(6H)-one] |
| 0.009 | O=C(NCc1ccccc1)[C@H]1CCCN1c1nc2c(=O)[nH]c(-c3c(F)cccc3F)nc2s1 [Example 583, (R)-N-benzyl-1-[5-(2,6-difluorophenyl)-7-oxo-6,7-dihydro[1,3]thiazolo[5,4-d]pyrimidin-2-yl]pyrrolidine-2-carboxamide] |
| 0.012 | Cc1noc(-c2nc3sc(N4CCC[C@@H]4C(=O)NCc4ccccc4)nc3c(=O)[nH]2)n1 [Example 585, (R)-N-benzyl-1-[5-(3-methyl-[1,2,4]oxadiazol-5-yl)-7-oxo-6,7-dihydro[1,3]thiazolo[5,4-d]pyrimidin-2-yl]pyrrolidine-2-carboxamide] |
| 0.28 | CN1CCn2c(nc3sc(N4CCC[C@@H]4C(=O)NCc4ccccc4)nc3c2=O)C1 [Example 590, (R)-N-benzyl-1-(6-methyl-10-oxo-5,7,8,10-tetrahydro-6H-pyrazino[1,2-a][1,3]thiazolo[5,4-d]pyrimidin-2-yl)pyrrolidine-2-carboxamide] |
| 0.051 | O=C(NCc1ccccc1)[C@H]1CCCN1c1nc2c(=O)n3c(nc2s1)CN(CC(F)F)CC3 [Example 593, (R)-N-benzyl-1-[6-(2,2-difluoroethyl)-10-oxo-5,7,8,10-tetrahydro-6H-pyrazino[1,2-a][1,3]thiazolo[5,4-d]pyrimidin-2-yl]pyrrolidine-2-carboxamide] |
| 0.14 | C[C@@H]1CN(C)Cc2nc3sc(N4CCC[C@@H]4C(=O)NCc4ccccc4)nc3c(=O)n21 [Example 601, (R)-N-benzyl-1-[(R)-6,8-dimethyl-10-oxo-5,7,8,10-tetrahydro-6H-pyrazino[1,2-a][1,3]thiazolo[5,4-d]pyrimidin-2-yl]pyrrolidine-2-carboxamide] |
| 0.031 | CN1CCn2c1nc1sc(N3CCC[C@@H]3C(=O)NCc3ccccc3)nc1c2=O [Example 602, (R)-N-benzyl-1-(5-methyl-9-oxo-5,6,7,9-tetrahydroimidazo[1,2-a][1,3]thiazolo[5,4-d]pyrimidin-2-yl)pyrrolidine-2-carboxamide] |
| 0.0082 | O=C(NCc1ccccc1)[C@H]1CCCN1c1nc2c(=O)n3c(nc2s1)C(F)(F)CCC3 [Example 605, (R)-N-benzyl-1-(5,5-difluoro-10-oxo-5,7,8,10-tetrahydro-6H-pyrido[1,2-a][1,3]thiazolo[5,4-d]pyrimidin-2-yl)pyrrolidine-2-carboxamide] |
| 0.0076 | CC(C)(O)c1nc2sc(N3CCC[C@@H]3C(=O)NCc3ccccc3)nc2c(=O)[nH]1 [Example 606, (R)-N-benzyl-1-[5-(2-hydroxypropan-2-yl)-7-oxo-6,7-dihydro[1,3]thiazolo[5,4-d]pyrimidin-2-yl]pyrrolidine-2-carboxamide] |
